{
  "source": "patent US9789080B2",
  "about": "“Ophthalmic formulations of mycophenolic acid” (INSITE VISION INCORPORATED, priority 2015, dated 2017)",
  "key": {"[1]": {"experiment": "dissolution of active ingredient in aqueous medium as a function of pH", "type": "physicochemical", "conditions": "pH of aqueous medium adjusted to greater than 7.0", "source_text": "In an embodiment of the present disclosure, the pH of an ophthalmic formulation including mycophenolic acid or salt thereof in an aqueous medium with a reduced level of oxygen dissolved in the ophthalmic formulation can be adjusted to a pH of greater than 7.0, e.g., at least about 7.4, such as at least about 7.8. In an embodiment, the ophthalmic formulation of the present disclosure has a pH in a range of 7.4 to 7.8 with a specification of ±0.3 pH units."}, "[2]": {"conditions": "Merck Index 14th Ed. 2006, monograph no. 6327; cited from earlier work"}},
  "data": [
    {"smiles": "COc1c(C)c2c(c(O)c1C/C=C(\\C)CCC(=O)O)C(=O)OC2", "note": "[mycophenolic acid]", "values": [
      {"measurement": "dissolution of the active ingredient", "setting": "[1]", "result": "facilitates dissolution"},
      {"measurement": "solubility in cold water", "setting": "[2]", "result": "almost insoluble"}
    ]}
  ]
}
